From patent US12227517B2, “Pyridazinyl-thiazolecarboxamide compound” (Astellas Pharma Inc., priority 2019, dated 2025)
Counter-ions that a name gives are not always drawn.

Target: human recombinant DGK ξ (Homo sapiens (Human), UniProt Q13574)
Experiment: Evaluation of DGK ξ inhibitory effect (ADP-Glo Kinase Assay)
Type: biochemical
Procedure: Test Example 1: Evaluation of DGK ξ Inhibitory Effect
The inhibitory effect of a test compound on human recombinant DGK ξ (Carna Biosciences, Inc., 12-410-20N) was examined by the following method in which detection is performed with ADP-Glo™ Kinase Assay (Promega Corporation).
To a 384-well plate (Greiner Bio-One Co., Ltd.), 3 μL of a […] dissolved in an assay buffer (40 mM Tris-HCl pH 7.5, 10 mM MgCl2, 1 mM dithiothreitol (DTT) and 0.1 mg/mL bovine serum albumin (BSA)) (90 ng/mL) was added, and 3 μL of the test compound diluted with the same assay buffer was added so that an intended final concentration was obtained. The mixture was left standing at room temperature for 15 minutes, 3 μL of a substrate (150 μM 1-oleoyl-2-acetyl-sn-glycerol (Sigma-Aldrich Co. LLC.), 480 μM phosphatidylserine (Avanti Polar Lipids, Inc.) and 150 μM UltraPure-ATP (attached to ADP-Glo)) was then added, and the mixture was left standing at room temperature for 30 minutes to react. Thereafter, 3 μL of an ADP-Glo Reagent was added, and the mixture was left standing at room temperature for 40 minutes to stop the enzyme reaction. Further, 6 μL of a Kinase-Detection Reagent was added, the mixture was left standing at room temperature for 30 minutes, and the luminescence was then measured using ARVO X3 (PerkinElmer, Inc.). The half maximal inhibitory concentration (IC50) was calculated by Sigmoid-Emax model non-linear regression analysis, where the signal value in solvent treatment was set to 0% inhibition and the signal value without addition of the DGK ξ enzyme was set to 100% inhibition. […] In the table, Ex represents the number of each Example described below. Also, in the table, compound C (cpd. C) represents the test compound of the Example 199 described in the international publication WO 2008/054702.

Sequence of human recombinant DGK ξ (Q13574 whole entry): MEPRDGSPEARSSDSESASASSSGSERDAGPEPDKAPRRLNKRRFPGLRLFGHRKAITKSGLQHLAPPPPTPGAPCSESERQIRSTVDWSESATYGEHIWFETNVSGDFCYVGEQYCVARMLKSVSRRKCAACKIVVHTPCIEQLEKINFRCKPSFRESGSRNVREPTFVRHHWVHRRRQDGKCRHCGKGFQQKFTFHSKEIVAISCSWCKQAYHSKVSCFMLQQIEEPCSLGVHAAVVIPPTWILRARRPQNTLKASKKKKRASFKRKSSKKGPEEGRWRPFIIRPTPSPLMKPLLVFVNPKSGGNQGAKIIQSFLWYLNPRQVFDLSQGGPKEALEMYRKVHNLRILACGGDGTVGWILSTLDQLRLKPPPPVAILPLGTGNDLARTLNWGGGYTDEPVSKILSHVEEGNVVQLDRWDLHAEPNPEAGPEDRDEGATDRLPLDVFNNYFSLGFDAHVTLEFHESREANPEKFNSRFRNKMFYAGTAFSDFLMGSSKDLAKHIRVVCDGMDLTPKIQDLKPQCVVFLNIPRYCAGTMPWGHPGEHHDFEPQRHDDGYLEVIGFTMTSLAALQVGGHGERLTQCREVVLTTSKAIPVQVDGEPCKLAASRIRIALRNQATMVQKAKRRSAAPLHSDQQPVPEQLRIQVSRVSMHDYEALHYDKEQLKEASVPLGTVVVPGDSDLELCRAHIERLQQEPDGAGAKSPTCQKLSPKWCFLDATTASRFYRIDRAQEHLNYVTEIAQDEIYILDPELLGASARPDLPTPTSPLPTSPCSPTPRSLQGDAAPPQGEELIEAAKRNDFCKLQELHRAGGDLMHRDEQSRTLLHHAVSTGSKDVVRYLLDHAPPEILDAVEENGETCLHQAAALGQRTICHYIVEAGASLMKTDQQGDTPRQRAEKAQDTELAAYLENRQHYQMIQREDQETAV

Row | Compound | IC50 [nM]
1 | COCCN1CCC2(CCCN(c3c(NC(=O)c4csc(-c5ccnnc5)n4)ccc(Oc4ccccc4)c3C(F)(F)F)C2)CC1 [Example 61] | 3
2 | CNC[C@H]1CCCN1c1c(NC(=O)c2csc(-c3ccnnc3)n2)ccc(Oc2ccccc2F)c1C(F)(F)F [Example 20] | 44
3 | O=C(Nc1ccc(OC2CCC2)c(F)c1C1=CCN(Cc2cc[nH]n2)CC1)c1csc(-c2ccnnc2)n1 [Example 4] | 50
4 | NC[C@@H]1CCCN(c2c(NC(=O)c3csc(-c4ccnnc4)n3)ccc(Oc3ccccc3F)c2C(F)(F)F)C1 [Example 86] | 3
5 | CN(C)C[C@@H]1CCCN(c2c(NC(=O)c3csc(-c4ccnnc4)n3)cc(F)c(Oc3ccccc3)c2F)C1 [Example 57] | 240
6 | CNC[C@@H]1CCCN(c2c(NC(=O)c3csc(-c4ccnnc4)n3)ccc(Oc3cccc(F)c3)c2C(F)(F)F)C1 [Example 51] | 16
7 | NC[C@@H]1CCCN(c2c(NC(=O)c3csc(-c4ccnnc4)n3)cc(F)c(Oc3ccccc3)c2F)C1 [Example 24] | 11
8 | Cc1c(OC2CC2)ccc(NC(=O)c2csc(-c3ccnnc3)n2)c1N1CCC[C@@H](CN)C1 [Example 71] | 44
9 | COc1c(Oc2ccccc2)ccc(NC(=O)c2csc(-c3ccnnc3)n2)c1N1CCC[C@@H](CN)C1 [Example 68] | 5
10 | NC[C@H]1CCCN1c1c(NC(=O)c2csc(-c3ccnnc3)n2)ccc(Oc2ccccc2F)c1C(F)(F)F [Example 19] | 15
11 | O=C(Nc1ccc(Oc2ccccc2)c(C(F)(F)F)c1N1CCOC2(CCNCC2)C1)c1csc(-c2ccnnc2)n1 [Example 12] | 17
12 | O=C(Nc1ccc(Oc2ccccc2)c(C(F)(F)F)c1N1CCOC2(CCN(CCO)CC2)C1)c1csc(-c2ccnnc2)n1 [Example 60] | 3
13 | NC[C@@H]1CCCN(c2c(NC(=O)c3csc(-c4ccnnc4)n3)ccc(C(=O)c3ccccc3)c2C(F)(F)F)C1 [Example 70] | 7
14 | NC[C@@H]1CCCN(c2c(NC(=O)c3csc(-c4ccnnc4)n3)ccc(Nc3ccccc3)c2C(F)(F)F)C1 [Example 18] | 19
15 | Cn1ccc(Oc2ccc(NC(=O)c3csc(-c4ccnnc4)n3)c(N3CCC[C@@H](CN)C3)c2C(F)(F)F)n1 [Example 17] | 13
16 | O=C(Nc1cc(F)c(OC2CC2)c(F)c1C1=CCN(Cc2cc[nH]n2)CC1)c1csc(-c2ccnnc2)n1 [Example 5] | 48
17 | NC[C@@H]1CCCN(c2c(NC(=O)c3csc(-c4ccnnc4)n3)ccc(OC3CCCC3)c2C(F)(F)F)C1 [Example 15] | 7
18 | NC[C@@H]1CCCN(c2c(NC(=O)c3csc(-c4ccnnc4)n3)ccc(Oc3ccc(F)cc3)c2C(F)(F)F)C1 [Example 41] | 11
19 | Cc1c(Oc2ccccc2)ccc(NC(=O)c2csc(-c3ccnnc3)n2)c1N1CCC[C@@H](CN)C1 [Example 72] | 18
20 | NC[C@@H]1CCCN(c2c(NC(=O)c3csc(-c4ccnnc4)n3)ccc(Oc3ccccc3)c2C2CC2)C1 [Example 67] | 12
21 | CNC[C@@H]1CCCN(c2c(NC(=O)c3csc(-c4ccnnc4)n3)ccc(Oc3ccc(F)cc3)c2C(F)(F)F)C1 [Example 43] | 36
22 | CN[C@@H]1CCN2CCN(c3c(NC(=O)c4csc(-c5ccnnc5)n4)ccc(OC4CC4)c3C(F)(F)F)C[C@@H]12 [Example 77] | 2
23 | NC[C@@H]1CCCN(c2c(NC(=O)c3csc(-c4ccnnc4)n3)ccc(S(=O)(=O)c3ccccc3)c2C(F)(F)F)C1 [Example 66] | 32
24 | CNC[C@@H]1CCCN(c2c(NC(=O)c3csc(-c4ccnnc4)n3)ccc(Oc3ccccc3Cl)c2C(F)(F)F)C1 [Example 36] | 13

The next lines start with the values.

Row | IC50 [nM] | Compound
25 | 90 | NC[C@H]1CN(c2c(NC(=O)c3csc(-c4ccnnc4)n3)ccc(Oc3ccccc3)c2C(F)(F)F)CCO1 [Example 27]
26 | 6 | N[C@H]1CCN2CCN(c3c(NC(=O)c4csc(-c5ccnnc5)n4)ccc(Oc4ccccc4)c3C(F)(F)F)C[C@H]12 [Example 75]
27 | 40 | CNCC[C@H]1CCCN1c1c(NC(=O)c2csc(-c3ccnnc3)n2)ccc(Oc2ccccc2)c1C(F)(F)F [Example 46]
28 | 30 | CNCC1CCCN(c2c(NC(=O)c3csc(-c4ccnnc4)n3)ccc(Oc3ccccc3)c2C(F)(F)F)C1 (stereo not shown) [Example 64, N-[2-{3-[(methylamino)methyl]piperidin-1-yl}-4-phenoxy-3-(trifluoromethyl)phenyl]-2-(pyridazin-4-yl)-1,3-thiazole-4-carboxamide]
29 | 9 | CN1CCN(c2c(NC(=O)c3csc(-c4ccnnc4)n3)ccc(Oc3ccccc3)c2C(F)(F)F)C[C@@H]1CN [Example 8]
30 | 39 | NCC[C@@H]1CN(c2c(NC(=O)c3csc(-c4ccnnc4)n3)ccc(Oc3ccccc3)c2C(F)(F)F)CCO1 [Example 30]
31 | 24 | NCC[C@H]1CCCN1c1c(NC(=O)c2csc(-c3ccnnc3)n2)ccc(Oc2ccccc2)c1C(F)(F)F [Example 45]
32 | 41 | N[C@H]1CCN2CCN(c3c(NC(=O)c4csc(-c5ccnnc5)n4)ccc(Oc4ccccc4)c3C(F)(F)F)C[C@@H]12 [Example 74]
33 | 26 | CNC[C@H]1CCCN1c1c(NC(=O)c2csc(-c3ccnnc3)n2)ccc(Oc2ccccc2)c1C(F)(F)F [Example 37]
34 | 17 | CN(C)C[C@H]1CCCN(c2c(NC(=O)c3csc(-c4ccnnc4)n3)ccc(Oc3ccccc3)c2C(F)(F)F)C1 [Example 54, N-[2-{(3R)-3-[(dimethylamino)methyl]piperidin-1-yl}-4-phenoxy-3-(trifluoromethyl)phenyl]-2-(pyridazin-4-yl)-1,3-thiazole-4-carboxamide dihydrochloride]
35 | 20 | NC[C@H]1CCCN1c1c(NC(=O)c2csc(-c3ccnnc3)n2)ccc(Oc2ccccc2)c1C(F)(F)F [Example 87]
36 | 31 | NC[C@H]1CCCN(c2c(NC(=O)c3csc(-c4ccnnc4)n3)ccc(Oc3ccccc3)c2C(F)(F)F)C1 [Example 32]
37 | 46 | CNC[C@@H]1CN(c2c(NC(=O)c3csc(-c4ccnnc4)n3)ccc(Oc3ccccc3)c2C(F)(F)F)CCO1 [Example 26]
38 | 0.7 | CN[C@@H]1CCN2CCN(c3c(NC(=O)c4csc(-c5ccnnc5)n4)ccc(Oc4ccccc4)c3C(F)(F)F)C[C@@H]12 [Example 73]
39 | 426 | CNC[C@H]1CN(c2c(NC(=O)c3csc(-c4ccnnc4)n3)ccc(Oc3ccccc3)c2C(F)(F)F)CCO1 [Example 29]
40 | 110 | NCC[C@@H]1CCCN(c2c(NC(=O)c3csc(-c4ccnnc4)n3)ccc(Oc3ccccc3)c2C(F)(F)F)C1 [Example 7]
41 | 10 | CNC[C@@H]1CCCN(c2c(NC(=O)c3csc(-c4ccnnc4)n3)ccc(Oc3ccccc3)c2C(F)(F)F)C1 [Example 49, N-[2-{(3S)-3-[(methylamino)methyl]piperidin-1-yl}-4-phenoxy-3-(trifluoromethyl)phenyl]-2-(pyridazin-4-yl)-1,3-thiazole-4-carboxamide]
42 | 152 | CN(C)[C@H]1CCN2CCN(c3c(NC(=O)c4csc(-c5ccnnc5)n4)ccc(Oc4ccccc4)c3C(F)(F)F)C[C@H]12 [Example 81]
43 | 3 | CN1CCC2(CC1)CN(c1c(NC(=O)c3csc(-c4ccnnc4)n3)ccc(Oc3ccccc3)c1C(F)(F)F)CCO2 [Example 1, N-[2-(9-methyl-1-oxa-4,9-diazaspiro[5.5]undecan-4-yl)-4-phenoxy-3-(trifluoromethyl)phenyl]-2-(pyridazin-4-yl)-1,3-thiazole-4-carboxamide]
